Measurements from US20110144001A1, “HIGHLY BRIDGED PEPTIDES FROM ACTINOMADURA NAMIBIENSIS” (SANOFI-AVENTIS, priority 2008, published 2011).

Assays:
[1] = tested on: Streptomyces murinus (DSM 40091); assay: microbe, parasite or virus in culture; format: cell-based; conditions: 28° C., 20 μl of 1 mg/ml test solution on 6 mm filter, 1 to 3 days
Protocol: (§1) The compounds were dissolved in water with 10% MeOH to a final concentration of 1 mg/ml. For the bioassay sterile Nunc plates with a size of 24×24 cm were used. For one plate 200 ml of agar were used. The agar was cooled after autoclaving to 55° C. and 2-4 ml of culture suspension of the test organism were added before plating. To each plate 64 filter plates with 6 mm in diameter were added. To each filter 20 μl of the test solution were added and incubated for 1 to 3 days at 28° C. or 37° C. The inhibition zone in mm was reported. For a detailed description of the methods, see Bauer et al., Amer. J. Clin. Pathol. 1966, 45, 493-496; Müller & Melchinger, Methoden in der Mikrobiologie, Franckhsche Verlagshandlung, Stuttgart (1964); Mueller & Hinton, Proc. Soc. Expt. Biol. Med. 1941, 48, 330-333.

[2] = tested on: Bacillus subtilis (ATCC 6633); assay: microbe, parasite or virus in culture; format: cell-based; conditions: 37° C., 20 μl of 1 mg/ml test solution on 6 mm filter, 1 to 3 days
Protocol: as §1

[3] = tested on: SNI mouse model of neuropathic pain; assay: Spared nerve injury (SNI) mouse model of neuropathic pain, tactile allodynia by automatic von Frey test; format: in vivo, C57B6 mice; conditions: 3 mg/kg intravenous single application
From the text: Labyrinthopeptin A1 was studied in the spared nerve injury (SNI) mouse model of neuropathic pain in order to proof the activity on tactile allodynia. Under general anesthesia, the two major branches of the sciatic nerve in adult male C57B6 mice (weight: 22.8 g+/−0.35 SEM) have been ligated and transsected, with the sural nerve left intact. Tactile allodynia has been determined with the automatic von Frey test: using a dump needle stick, the plantar skin of hind paws was exposed to a pressure stimulus of increasing intensity up to 5 g. The force in grams at which the animal responded with hindpaw withdrawal was used as a read-out for tactile allodynia. The study was performed 7 days after nerve lesion over 6 hours with an additional measurement after 24 hours. Within two days after nerve transsection, tactile allodynia developed completely and remained stable over at least two weeks. The compound was administered intravenous as a single application (3 mg/kg). As a vehicle for the intravenous application was the 1:1:18 (ethanol:solutol: phosphate buffered saline) vehicle chosen.
The effect was gone 24 hours after application. […] The percent benefit of the treatment was evaluated using the |AUC1-6 hour| values of the ipsilateral vehicle group (0% benefit) and all |AUC1-6 hour| values of the contralateral sides of all three groups (100% benefit=maximal possible effect). […]

Structure (SMILES)	inhibition zone, Streptomyces murinus (DSM 40091) [1]	inhibition zone, Bacillus subtilis (ATCC 6633) [2]	percent benefit of the treatment from |AUC1-6 hour| of paw withdrawal threshold ([3]; 7 days after nerve lesion, 0% = ipsilateral vehicle, 100% = contralateral sides)	treatment effect on delta |AUC1-6 hour| of paw withdrawal threshold (1-way ANOVA, Dunnett analysis) ([3]; vs vehicle)	zone of inhibition at 1000 µg/mL ([1]; Streptomyces murinus, DSM40091)	zone of inhibition at 1000 µg/mL ([2]; Bacillus subtilis, ATCC6633)
C/C=C1\NC(=O)[C@H](Cc2ccccc2)NC(=O)[C@@H]2CCCN2C(=O)[C@H](C(C)C)NC(=O)[C@H](Cc2c[nH]c3ccccc23)NC(=O)[C@]23CSC[C@H](NC1=O)C(=O)N[C@H](C(=O)O)CSSC[C@@H](NC(=O)[C@@H]1CSC[C@]4(C[C@H](NC(=O)OC(C)(C)C)C(=O)N[C@@H](CC(N)=O)C(=O)N[C@@H](C)C(=O)N4)C(=O)N[C@@H](C(C)C)C(=O)N[C@@H](Cc4c[nH]c5ccccc45)C(=O)N[C@@H](CCC(=O)O)C(=O)N1)C(=O)N[C@@H](C2)C(=O)N[C@@H]([C@@H](C)O)C(=O)NCC(=O)N3 [Labyrinthopeptin A1 derivative, Ex. 16]	0 mm	9 mm	–	–	–	–
C/C=C1\NC(=O)[C@H](Cc2ccccc2)NC(=O)[C@@H]2CCCN2C(=O)[C@H](C(C)C)NC(=O)[C@H](Cc2c[nH]c3ccccc23)NC(=O)[C@]23CSC[C@H](NC1=O)C(=O)N[C@H](C(=O)O)CSSC[C@@H](NC(=O)[C@@H]1CSC[C@]4(C[C@H](N)C(=O)N[C@@H](CC(N)=O)C(=O)N[C@@H](C)C(=O)N4)C(=O)N[C@@H](C(C)C)C(=O)N[C@@H](Cc4c[nH]c5ccccc45)C(=O)N[C@@H](CCC(=O)O)C(=O)N1)C(=O)N[C@@H](C2)C(=O)N[C@@H]([C@@H](C)O)C(=O)NCC(=O)N3 [Labyrinthopeptin A1]	13 mm	16.5 mm	95 % benefit	significant treatment effects	–	–
C/C=C1\NC(=O)[C@H](Cc2ccccc2)NC(=O)[C@@H]2CCCN2C(=O)[C@H](C(C)C)NC(=O)[C@H](Cc2c[nH]c3ccccc23)NC(=O)[C@]23CSC[C@H](NC1=O)C(=O)N[C@H](C(=O)NCc1ccccc1)CSSC[C@@H](NC(=O)[C@@H]1CSC[C@]4(C[C@H](NC(=O)OC(C)(C)C)C(=O)N[C@@H](CC(N)=O)C(=O)N[C@@H](C)C(=O)N4)C(=O)N[C@@H](C(C)C)C(=O)N[C@@H](Cc4c[nH]c5ccccc45)C(=O)N[C@@H](CCC(=O)NCc4ccccc4)C(=O)N1)C(=O)N[C@@H](C2)C(=O)N[C@@H]([C@@H](C)O)C(=O)NCC(=O)N3	7 mm	9 mm	–	–	–	–
CN(C)[C@@H]1C(O)=C(C(N)=O)C(=O)[C@@]2(O)C(O)=C3C(=O)c4c(O)cccc4[C@@](C)(O)[C@H]3C[C@@H]12 [Tetracycline, reference compound]	–	–	–	–	24 mm	32 mm
C/C=C1\NC(=O)[C@H](Cc2ccccc2)NC(=O)[C@@H]2CCCN2C(=O)[C@H](C(C)C)NC(=O)[C@H](Cc2c[nH]c3ccccc23)NC(=O)[C@]23CSC[C@H](NC1=O)C(=O)N[C@H](C(=O)O)CSSC[C@@H](NC(=O)[C@@H]1CSC[C@]4(C[C@H](NC(=O)OCCCCC)C(=O)N[C@@H](CC(N)=O)C(=O)N[C@@H](C)C(=O)N4)C(=O)N[C@@H](C(C)C)C(=O)N[C@@H](Cc4c[nH]c5ccccc45)C(=O)N[C@@H](CCC(=O)O)C(=O)N1)C(=O)N[C@@H](C2)C(=O)N[C@@H]([C@@H](C)O)C(=O)NCC(=O)N3 [Labyrinthopeptin A1 derivative, Ex. 18]	7 mm	8 mm	–	–	–	–
